Data from patent US11717569B2, “Tolerogenic synthetic nanocarriers” (Selecta Biosciences, Inc., priority 2011, dated 2023).

Legend:
iNKT cells = test: CD69 activation on liver iNKT cells in vivo; details: mice that received aGC
Experimental: Mice were designated to groups that received PBS alone, sol aGC+solRAPA, sol aGC+NP RAPA. Mice were injected at 9 am and at 9.30 AM received BrefeldinA i.v. to prevent release of intracellular cytokines produced. At 1 pm, mice were sacrificed and the liver was perfused with PBS and processed to obtain a single cell suspension enriched for lymphocytes. Cells were stained with cell surface markers for iNKT cells (agc-loaded CD1d tetramers) and T cells receptor (TCRb) and activation marker CD69. Cells were acquired on a FacsCanto flow cytometer and analyzed on by FlowJo.

[1] = system: Treg cells (CD4+CD25highFoxP3+); test: Antigen-specific tolerogenic dendritic cells (tDC) activity on Treg cell development; assay type: cell-based, OTII mice; details: FIG. 3; unstimulated 1.3%
Experimental: The assay included the use of OTII mice which have a transgenic T cell receptor specific for an immune-dominant ovalbumin peptide (323-339). In order to create antigen-specific tDCs, CD11c^+ splenocytes were isolated, and the ovalbumin peptide (323-339) added in vitro at 1 μg/ml or no antigen. Soluble or nanocarrier-encapsulated rapamycin was then added to the DCs for 2 hours which were then washed extensively to remove free rapamycin from the culture. Purified responder CD4^+CD25^− cells were isolated from OTII mice and added to tDC at a 10:1 T to DC ratio. The mixture of tDC and OTII T cells were then cultured for 4-5 days, and the frequency of Treg cells (CD4^+CD25highFoxP3^+) were analyzed by flow cytometry as shown in FIG. 1. Regions were selected based on isotype controls.
Free rapamycin or synthetic nanocarriers containing rapamycin were combined with free soluble Ovalbumin (323-339) to evaluate induction of tDC (FIG. 2). […] Briefly, antigen specific tDC were obtained by isolating dendritic cells (CD11c^+ splenocytes) and culturing them in combination with the Ovalbumin (323-339) peptide plus soluble or nanocarrier encapsulated rapamycin (Synthetic Nanocarrier #s 13, 14, 15 and 16) for 2 hours followed by extensive washing. […] The mixture of tDC and OTII T cells were then cultured for 4-5 days, and the frequency of Treg cells (CD4^+CD25highFoxP3^+) were analyzed by flow cytometry.

SMILES | iNKT cell activation (cytokine production and up regulation of CD69) (iNKT cells) | induction of FoxP3 expressing cells [1] [%]
CCCCCCCCCCCCCCCCCCCCCCCCCC(=O)N[C@@H](CO[C@H]1O[C@H](CO)[C@H](O)[C@H](O)[C@H]1O)[C@H](O)[C@H](O)CCCCCCCCCCCCCC [aGC, α-Galactosyl Ceramide (KRN7000)] | activated | –
CO[C@H]1C[C@@H]2CC[C@@H](C)[C@@](O)(O2)C(=O)C(=O)N2CCCC[C@H]2C(=O)O[C@H]([C@H](C)C[C@@H]2CC[C@@H](O)[C@H](OC)C2)CC(=O)[C@H](C)/C=C(\C)[C@@H](O)[C@@H](OC)C(=O)[C@H](C)C[C@H](C)/C=C/C=C/C=C/1C [free rapamycin, Rapamycin] | – | 2.7
